The values below come from ChEMBL document CHEMBL1124814 (J Med Chem, 1990).

Experiment [1] deals with T1, Opioid receptor (Mus musculus) (UniProt P42866+P32300+P33534). Nature of the experiment: Opioid receptors antagonist activity in smooth-muscle tissue mouse vas deferens (MVD) in presence of NLX. It counts as functional, tissue-based.
Experiment [2] deals with T2, Opioid receptors; mu/kappa/delta (Homo sapiens, UniProt P41145+P41143+P35372). The settings on record: Cavia porcellus; Ileum.
Description: Opioid receptors antagonist activity in smooth-muscle tissue of guinea pig ileum (GPI) in presence of NLX
In another experiment the target is Opioid receptor (Mus musculus, UniProt P42866+P32300+P33534). Nature of the experiment: Opioid receptors antagonist activity in smooth-muscle tissue mouse vas deferens (MVD). It counts as functional, tissue-based.
Experiment [3] has as its target Kappa-type opioid receptor (Cavia porcellus, UniProt P41144). Put plainly: Binding affinity against Opioid receptor kappa 1 in guinea pig brain homogenate using [3H]- U-69593 as radioligand. The format is tissue-based.
For experiment [4], the target named is T1, Opioid receptor (Mus musculus). Nature of the experiment: Opioid receptors antagonist activity in smooth-muscle tissue mouse vas deferens (MVD) in presence of CTAP. It counts as functional, tissue-based.
A further experiment addresses Mu-type opioid receptor (Cavia porcellus, UniProt P97266). Put plainly: Binding affinity against Opioid receptor mu 1 in guinea pig brain homogenate using [3H]- PL-17 as radioligand. The format is tissue-based.
The target in experiment [5] is T2, Opioid receptors; mu/kappa/delta. Nature of the experiment: Opioid receptors antagonist activity in smooth-muscle tissue of guinea pig ileum (GPI). Particulars: target entry is the homologue from another species. The format is functional, tissue-based, Cavia porcellus.
Experiment [6] addresses T1, Opioid receptor (Mus musculus). Nature of the experiment: Opioid receptors antagonist activity in smooth-muscle tissue mouse vas deferens (MVD) in presence of ICI. The format is functional, tissue-based.
The target of experiment [7] is T2, Opioid receptors; mu/kappa/delta. The settings on record: Cavia porcellus; Ileum. This is another data set of the same source.
Description: Opioid receptors antagonist activity in smooth-muscle tissue of guinea pig ileum (GPI) in presence of CTAP

Each structure is given as a SMILES string. Positions of bridges follow the written chain, without caps; N, C: chain ends. Residues, ends and D or L forms follow the SMILES beside them.

T2 sequence (P35372 whole entry, looked up): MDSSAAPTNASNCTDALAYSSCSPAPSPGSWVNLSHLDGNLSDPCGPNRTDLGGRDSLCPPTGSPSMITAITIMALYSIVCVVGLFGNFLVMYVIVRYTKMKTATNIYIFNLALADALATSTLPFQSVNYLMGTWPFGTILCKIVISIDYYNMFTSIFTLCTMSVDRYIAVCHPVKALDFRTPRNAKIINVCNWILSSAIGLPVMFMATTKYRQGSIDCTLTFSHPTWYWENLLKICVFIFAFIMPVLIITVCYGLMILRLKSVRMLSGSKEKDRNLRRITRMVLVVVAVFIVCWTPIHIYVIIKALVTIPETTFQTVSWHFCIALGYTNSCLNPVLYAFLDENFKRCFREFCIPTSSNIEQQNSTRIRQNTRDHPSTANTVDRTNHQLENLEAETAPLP
T2 sequence (P41143 whole entry, looked up): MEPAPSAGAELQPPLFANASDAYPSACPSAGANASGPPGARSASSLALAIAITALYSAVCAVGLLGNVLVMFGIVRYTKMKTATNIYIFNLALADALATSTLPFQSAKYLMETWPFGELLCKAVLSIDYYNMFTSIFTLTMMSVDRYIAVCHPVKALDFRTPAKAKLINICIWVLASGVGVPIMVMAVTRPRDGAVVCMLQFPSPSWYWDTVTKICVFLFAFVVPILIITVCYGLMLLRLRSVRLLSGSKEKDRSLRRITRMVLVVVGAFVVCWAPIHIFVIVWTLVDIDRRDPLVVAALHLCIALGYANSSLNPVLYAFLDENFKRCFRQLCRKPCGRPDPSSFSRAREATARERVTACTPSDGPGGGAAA
T2 sequence (P41145 whole entry, looked up): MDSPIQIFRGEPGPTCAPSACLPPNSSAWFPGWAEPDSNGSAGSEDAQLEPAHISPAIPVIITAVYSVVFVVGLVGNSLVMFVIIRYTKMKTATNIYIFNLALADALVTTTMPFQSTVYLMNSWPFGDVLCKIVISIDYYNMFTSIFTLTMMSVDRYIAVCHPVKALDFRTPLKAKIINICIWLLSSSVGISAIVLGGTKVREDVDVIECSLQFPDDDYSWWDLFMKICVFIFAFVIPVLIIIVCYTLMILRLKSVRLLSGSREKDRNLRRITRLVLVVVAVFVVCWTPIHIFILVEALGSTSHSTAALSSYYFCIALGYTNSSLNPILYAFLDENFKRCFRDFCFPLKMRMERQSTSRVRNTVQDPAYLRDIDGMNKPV
Sequence of Kappa-type opioid receptor (P41144 whole entry): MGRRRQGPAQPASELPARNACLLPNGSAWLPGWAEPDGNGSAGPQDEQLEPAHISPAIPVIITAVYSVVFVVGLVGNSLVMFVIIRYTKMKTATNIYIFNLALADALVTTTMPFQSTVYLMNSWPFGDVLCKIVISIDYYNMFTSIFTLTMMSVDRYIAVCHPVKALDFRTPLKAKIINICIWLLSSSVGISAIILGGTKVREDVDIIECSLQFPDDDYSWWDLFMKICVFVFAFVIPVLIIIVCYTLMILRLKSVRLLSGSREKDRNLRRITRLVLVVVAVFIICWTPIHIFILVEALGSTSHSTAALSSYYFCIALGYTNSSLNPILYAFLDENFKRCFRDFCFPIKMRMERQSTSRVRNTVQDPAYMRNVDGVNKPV
T1 sequence (P32300 whole entry, looked up): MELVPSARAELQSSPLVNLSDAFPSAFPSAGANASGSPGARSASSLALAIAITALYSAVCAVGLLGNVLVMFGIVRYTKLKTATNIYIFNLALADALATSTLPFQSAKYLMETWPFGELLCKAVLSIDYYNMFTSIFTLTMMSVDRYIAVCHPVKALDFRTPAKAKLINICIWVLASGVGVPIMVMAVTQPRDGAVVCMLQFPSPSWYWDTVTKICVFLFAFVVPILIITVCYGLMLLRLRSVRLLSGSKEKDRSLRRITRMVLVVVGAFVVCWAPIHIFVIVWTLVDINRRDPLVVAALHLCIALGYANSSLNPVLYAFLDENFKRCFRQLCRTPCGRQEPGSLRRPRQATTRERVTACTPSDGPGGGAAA
T1 sequence (P33534 whole entry, looked up): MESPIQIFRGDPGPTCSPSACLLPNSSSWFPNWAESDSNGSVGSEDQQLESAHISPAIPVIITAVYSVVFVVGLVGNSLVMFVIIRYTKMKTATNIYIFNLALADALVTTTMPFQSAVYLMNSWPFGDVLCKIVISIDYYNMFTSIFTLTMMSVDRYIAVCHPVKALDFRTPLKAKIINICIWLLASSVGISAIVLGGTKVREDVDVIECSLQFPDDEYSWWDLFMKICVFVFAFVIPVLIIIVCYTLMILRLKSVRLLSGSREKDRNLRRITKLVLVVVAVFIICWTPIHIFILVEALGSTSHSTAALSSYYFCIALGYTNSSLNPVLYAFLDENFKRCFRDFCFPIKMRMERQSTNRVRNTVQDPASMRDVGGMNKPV
T1 sequence (P42866 whole entry, looked up): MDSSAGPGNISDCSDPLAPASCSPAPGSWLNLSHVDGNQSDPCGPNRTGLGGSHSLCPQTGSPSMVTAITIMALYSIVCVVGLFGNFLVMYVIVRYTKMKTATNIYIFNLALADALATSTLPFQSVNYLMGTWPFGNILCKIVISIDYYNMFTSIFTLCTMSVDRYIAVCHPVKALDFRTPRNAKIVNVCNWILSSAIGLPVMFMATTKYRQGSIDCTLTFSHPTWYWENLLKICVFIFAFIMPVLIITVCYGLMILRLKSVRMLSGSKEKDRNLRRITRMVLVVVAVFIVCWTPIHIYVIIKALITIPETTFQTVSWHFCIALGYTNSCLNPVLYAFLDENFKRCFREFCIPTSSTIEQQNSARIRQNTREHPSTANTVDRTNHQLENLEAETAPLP
Sequence of Mu-type opioid receptor (P97266 whole entry): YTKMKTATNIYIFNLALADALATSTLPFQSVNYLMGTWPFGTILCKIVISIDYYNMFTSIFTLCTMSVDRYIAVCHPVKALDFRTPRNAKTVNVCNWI

Regarding `CC(C)C[C@@H]1NC(=O)[C@H](CCCCN)NC(=O)[C@@H]2CCCN2C(=O)[C@H](CCCN=C(N)N)NC(=O)[C@@H](NC(=O)[C@H](CCCN=C(N)N)NC(=O)[C@H](CCCN=C(N)N)NC(=O)[C@H](CC(C)C)NC(=O)[C@H](Cc2ccccc2)NC(=O)CNC(=O)CNC(=O)[C@@H](N)Cc2ccc(O)cc2)CSSC[C@@H](C(N)=O)NC1=O`, the Ke in experiment [1] was determined as 95.2 nM; in experiment [2] it was 38.9 nM; in [4], 175 nM; in experiment [6] it was 156 nM. Also, the IC50 (usually the concentration that gives 50% inhibition) on Opioid receptor is 20.1 nM; in experiment [3] it was 0.074 nM; at Mu-type opioid receptor, 0.986 nM; in [5] it was 1.3 nM.
Regarding `CC[C@H](C)[C@H](NC(=O)[C@H](CCCN=C(N)N)NC(=O)[C@H](CCCN=C(N)N)NC(=O)[C@H](CC(C)C)NC(=O)[C@H](Cc1ccccc1)NC(=O)CNC(=O)CNC(=O)[C@@H](N)Cc1ccc(O)cc1)C(=O)N[C@@H](CCCN=C(N)N)C(=O)N1CCC[C@H]1C(=O)N[C@@H](CCCCN)C(=O)N[C@@H](CC(C)C)C(=O)N[C@@H](CCCCN)C(N)=O`, the results for the Ke in [1], in [2] and in experiment [7] were 100 nM, 82 nM and 2000 nM, respectively. Also, the 50% inhibitory concentration (IC50) at Opioid receptor turned out to be 7.8 nM; in experiment [3], 0.114 nM; on Mu-type opioid receptor, 1.29 nM; in experiment [5], 1.7 nM.
For the compound `CC[C@H](C)[C@H](NC(=O)[C@H](CCCN=C(N)N)NC(=O)[C@H](CCCN=C(N)N)NC(=O)[C@H](CC(C)C)NC(=O)[C@H](Cc1ccccc1)NC(=O)CNC(=O)CNC(=O)[C@@H](N)Cc1ccc(O)cc1)C(=O)N[C@@H](CCCN=C(N)N)C(=O)N1CCC[C@H]1C(=O)N[C@@H](CCCCN)C(N)=O`, the Ke in [1] is 125 nM; in experiment [6], 625 nM. For the same compound, the concentration for half-maximal inhibition (IC50) against Opioid receptor was 204 nM; on Mu-type opioid receptor, 1.08 nM; in experiment [5], 7.5 nM.
As to `C[C@H]1NC(=O)[C@H](CCCN=C(N)N)NC(=O)[C@H](CCCN=C(N)N)NC(=O)[C@@H](NC(=O)[C@H](Cc2ccccc2)NC(=O)CNC(=O)CNC(=O)[C@@H](N)Cc2ccc(O)cc2)CSSC[C@@H](C(N)=O)NC(=O)[C@@H]2CCCN2C(=O)[C@H](CCCN=C(N)N)NC1=O`, the Ke in [7] turned out to be 50 nM; in [4] it was 500 nM; in experiment [6], 21.3 nM. The IC50 against Opioid receptor turned out to be 1660 nM; in experiment [5], 4406 nM.
`CC[C@H](C)[C@H](NC(=O)[C@H](CCCNC(=N)N)NC(=O)[C@H](CCCNC(=N)N)NC(=O)[C@H](CC(C)C)NC(=O)[C@H](Cc1ccccc1)NC(=O)CNC(=O)CNC(=O)[C@@H](N)Cc1ccc(O)cc1)C(=O)N[C@@H](CCCNC(=N)N)C(=O)N1CCC[C@H]1C(=O)N[C@@H](CCCCN)C(=O)N[C@@H](CC(C)C)C(=O)N[C@@H](CCCCN)C(=O)N[C@@H](Cc1c[nH]c2ccccc12)C(=O)N[C@@H](CC(=O)O)C(=O)N[C@@H](CC(N)=O)C(=O)N[C@@H](CCC(N)=O)C(=O)O` [DYNORPHIN A (1-17)]: the IC50 in experiment [3] was determined as 0.231 nM.
As to `CC[C@H](C)[C@@H]1NC(=O)[C@H](CCCN=C(N)N)NC(=O)[C@H](CCCN=C(N)N)NC(=O)[C@@H](NC(=O)[C@H](Cc2ccccc2)NC(=O)CNC(=O)CNC(=O)[C@@H](N)Cc2ccc(O)cc2)CSSC[C@@H](C(N)=O)NC(=O)[C@@H]2CCCN2C(=O)[C@H](CCCN=C(N)N)NC1=O` (H-YGGFCRRIRPC-NH2; disulfide 5-11), the Ke was determined as 80 nM in experiment [1], 66.7 nM in experiment [2], 2000 nM in [4] and 86.2 nM in [6]. The IC50 came out at 421 nM at Opioid receptor, 0.285 nM in experiment [3], 0.027 nM on Mu-type opioid receptor and 1080 nM in experiment [5].
Take `C[C@H]1NC(=O)[C@H](CCCNC(=N)N)NC(=O)[C@H](CCCNC(=N)N)NC(=O)[C@@H](NC(=O)[C@H](Cc2ccccc2)NC(=O)CNC(=O)CNC(=O)[C@@H](N)Cc2ccc(O)cc2)CSSC[C@@H](C(N)=O)NC(=O)[C@@H]2CCCN2C(=O)[C@H](CCCNC(=N)N)NC1=O`: the IC50 is 0.391 nM in experiment [3] and 2.3 nM on Mu-type opioid receptor.
With `CC(C)C[C@@H]1NC(=O)[C@H](CCCCN)NC(=O)[C@@H]2CCCN2C(=O)[C@H](CCCN=C(N)N)NC(=O)[C@H](NC(=O)[C@H](CCCN=C(N)N)NC(=O)[C@H](CCCN=C(N)N)NC(=O)[C@H](CC(C)C)NC(=O)[C@H](Cc2ccccc2)NC(=O)CNC(=O)CNC(=O)[C@@H](N)Cc2ccc(O)cc2)CSSC[C@@H](C(N)=O)NC1=O`, the Ke worked out at 30.3 nM in experiment [1], 32.3 nM in [2], 370 nM in [4] and 667 nM in [6]. For the same compound, the IC50 on Opioid receptor came to 24.5 nM; in experiment [5], 2.27 nM.
As for `CC(C)C[C@H](NC(=O)[C@H](Cc1ccccc1)NC(=O)CNC(=O)CNC(=O)[C@@H](N)Cc1ccc(O)cc1)C(=O)N[C@@H](CCCN=C(N)N)C(=O)N[C@@H](CCCN=C(N)N)C(=O)N[C@@H]1CSSC[C@H](C(N)=O)NC(=O)[C@H](CC(C)C)NC(=O)[C@H](CCCCN)NC(=O)[C@@H]2CCCN2C(=O)[C@H](CCCN=C(N)N)NC1=O`, the Ke in experiment [1] is 18.2 nM; in experiment [2] it was 233 nM; in [4], 1430 nM; in experiment [6] it was 1000 nM. Besides, the results for the IC50 (at Opioid receptor; on Mu-type opioid receptor; in experiment [5]) were 19.5 nM, 0.362 nM and 1.75 nM, respectively.
Turning to `CC(C)C[C@@H]1NC(=O)[C@H](CCCCN)NC(=O)[C@@H]2CCCN2C(=O)[C@H](CCCNC(=N)N)NC(=O)[C@H](NC(=O)[C@H](CCCNC(=N)N)NC(=O)[C@H](CCCNC(=N)N)NC(=O)[C@H](CC(C)C)NC(=O)[C@H](Cc2ccccc2)NC(=O)CNC(=O)CNC(=O)[C@@H](N)Cc2ccc(O)cc2)CSSC[C@@H](C(N)=O)NC1=O`, the IC50 amounted to 1.76 nM in experiment [3] and 10.3 nM on Mu-type opioid receptor.
